Measurements taken from the supplement of paper PMC10307832.

Columns and labels:
Assay in all cases: relative viability (nuclei count vs DMSO), 5 days (fraction); higher = more cells survive
Dasatinib + Olaparib = compound: Cc1nc(Nc2ncc(C(=O)Nc3c(C)cccc3Cl)s2)cc(N2CCN(CCO)CC2)n1 [Dasatinib] + O=C(c1cc(Cc2n[nH]c(=O)c3ccccc23)ccc1F)N1CCN(C(=O)C2CC2)CC1 [Olaparib] (partner 8 µM)
How it was run: (§1)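 Values are medians from duplicate plates. Each reflects relative viability, defined as the nuclei count of treated wells over that of vehicle wells. Lung cancer cell lines in 1536-well plates were pin-tool dosed one day after seeding with one drug alone or with a fixed anchor-drug dose plus five library-drug doses (not always all listed) in √10 steps, then fixed, stained and imaged at 4× after 5 days.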

ALW-II-49-7 + Olaparib = compound: Cc1ccc(C(=O)Nc2cccc(C(F)(F)F)c2)cc1Nc1cncc(C(N)=O)c1 [ALW-II-49-7] + O=C(c1cc(Cc2n[nH]c(=O)c3ccccc23)ccc1F)N1CCN(C(=O)C2CC2)CC1 [Olaparib] (partner 8 µM)
How it was run: as §1

Dasatinib + Alpelisib = compound: Cc1nc(Nc2ncc(C(=O)Nc3c(C)cccc3Cl)s2)cc(N2CCN(CCO)CC2)n1 [Dasatinib] + Cc1nc(NC(=O)N2CCC[C@H]2C(N)=O)sc1-c1ccnc(C(C)(C)C(F)(F)F)c1 [Alpelisib] (partner 2 µM)
How it was run: as §1

ALW-II-49-7 + Decitabine = compound: Cc1ccc(C(=O)Nc2cccc(C(F)(F)F)c2)cc1Nc1cncc(C(N)=O)c1 [ALW-II-49-7] + Nc1ncn([C@H]2C[C@H](O)[C@@H](CO)O2)c(=O)n1 [Decitabine] (partner 2 µM)
How it was run: as §1

Cell Line	relative viability (Dasatinib + Olaparib; first compound 0.005 µM)	relative viability (Dasatinib + Olaparib; first compound 0.01581 µM)	relative viability (Dasatinib + Olaparib; first compound 0.05 µM)	relative viability (Dasatinib + Olaparib; first compound 0.1581 µM)	relative viability (Dasatinib + Olaparib; first compound 0.5 µM)	relative viability (ALW-II-49-7 + Olaparib; first compound 0.08 µM)	relative viability (ALW-II-49-7 + Olaparib; first compound 0.253 µM)	relative viability (ALW-II-49-7 + Olaparib; first compound 0.8 µM)	relative viability (ALW-II-49-7 + Olaparib; first compound 2.53 µM)	relative viability (ALW-II-49-7 + Olaparib; first compound 8 µM)	relative viability (Dasatinib + Alpelisib; first compound 0.005 µM)	relative viability (Dasatinib + Alpelisib; first compound 0.01581 µM)	relative viability (Dasatinib + Alpelisib; first compound 0.05 µM)	relative viability (Dasatinib + Alpelisib; first compound 0.1581 µM)	relative viability (Dasatinib + Alpelisib; first compound 0.5 µM)	relative viability (ALW-II-49-7 + Decitabine; first compound 0.08 µM)	relative viability (ALW-II-49-7 + Decitabine; first compound 0.253 µM)	relative viability (ALW-II-49-7 + Decitabine; first compound 0.8 µM)	relative viability (ALW-II-49-7 + Decitabine; first compound 2.53 µM)	relative viability (ALW-II-49-7 + Decitabine; first compound 8 µM)
NCI-H2023	0.43	0.456	0.377	0.378	0.379	0.458	0.543	0.649	0.451	0.424	0.479	0.481	0.436	0.473	0.27	0.226	0.214	0.255	0.249	0.347
NCI-H2342	0.564	0.397	0.364	0.274	0.285	0.47	0.436	0.394	0.357	0.396	–	–	–	–	–	0.714	0.767	0.697	0.693	0.783
SW 1573	0.424	0.378	0.347	0.253	0.327	0.508	0.561	0.469	0.505	0.349	0.596	0.524	0.438	0.302	0.241	0.442	0.601	0.654	0.44	0.423
NCI-H1993	1.08	1.13	1.23	0.895	0.794	1.01	1.02	0.928	1.06	1.32	0.702	0.66	0.653	0.521	0.587	0.591	0.567	0.603	0.576	0.587
NCI-H661	0.731	0.792	0.747	0.618	0.592	0.736	0.85	0.762	0.801	0.733	0.538	0.584	0.424	0.271	0.254	0.519	0.583	0.574	0.541	0.5
NCI-H520	0.335	0.244	0.237	0.127	0.16	0.306	0.339	0.33	0.31	0.328	0.539	0.456	0.457	0.145	0.142	0.559	0.472	0.497	0.531	0.561
ChaGo-K-1	0.424	0.404	0.426	0.393	0.325	0.384	0.427	0.394	0.411	0.39	–	–	–	–	–	0.541	0.472	0.526	0.537	0.546
NCI-H2085	0.799	0.745	0.553	0.292	0.187	0.701	0.776	0.756	0.844	0.763	0.874	0.794	0.596	0.292	0.2	0.515	0.537	0.48	0.523	0.55
NCI-H1651	0.178	0.175	0.174	0.17	0.16	0.15	0.176	0.176	0.169	0.171	0.899	0.853	0.66	0.544	0.619	0.637	0.669	0.606	0.604	0.51
RERF-LC-KJ	0.906	0.836	0.87	0.788	0.816	0.988	1.06	0.874	0.856	0.725	0.823	0.496	0.665	0.614	0.432	0.694	0.783	0.729	0.732	0.611
NCI-H1703	0.287	0.25	0.144	0.147	0.148	0.492	0.398	0.358	0.245	0.245	0.229	0.179	0.184	0.155	0.157	–	–	–	–	–
NCI-H1650	0.741	0.614	0.571	0.442	0.282	0.71	0.602	0.749	0.905	0.969	–	–	–	–	–	0.447	0.399	0.432	0.462	0.493
NCI-H522	0.707	0.513	0.591	0.52	0.549	0.764	0.547	0.734	0.635	0.742	–	–	–	–	–	0.67	0.669	0.697	0.732	0.692
NCI-H1563	–	–	–	–	–	–	–	–	–	–	0.742	0.615	0.662	0.608	0.604	–	–	–	–	–
SW 900	0.65	0.436	0.395	0.324	0.336	0.652	0.759	–	0.741	0.931	–	–	–	–	–	0.506	0.487	–	0.552	0.661
NCI-H2228	0.847	0.647	0.714	0.464	0.273	0.683	0.879	0.606	0.531	0.57	0.693	0.769	0.581	0.263	0.268	–	–	–	–	–
IA-LM	1.06	0.537	0.904	0.706	0.6	0.823	0.718	0.726	0.628	0.355	0.969	0.71	0.882	0.84	0.62	–	–	–	–	–
EBC-1	0.803	0.619	0.612	0.613	0.602	0.724	0.794	0.676	0.646	0.688	0.78	0.755	0.579	0.579	0.463	–	–	–	–	–
NCI-H1299	0.959	0.983	0.998	0.639	0.297	0.94	0.972	0.988	0.73	0.761	1.07	1.13	1.08	0.924	0.288	–	–	–	–	–
